Measured values taken from US7393839B2, “Polymorphic antiviral nucleoside compounds” (Roche Palo Alto LLC, priority 2003, dated 2008).
Where a name gives a salt, the structure may show the parent alone.

Legend:
[1] = Vapor sorption analysis (hygroscopicity); assay type: physicochemical
Excerpt: Vapor sorption analysis was used to assess the hygroscopicity of the Form A polymorph. The experiment was run in an isothermal mode and the sample weight recorded as the relative humidity was varied. During the adsorption phase Ib gained 0.5 wt % between 5% relative humidity (RH) and 85% RH. […] At the end of the analysis the sample was still solid and appeared to be crystalline. After the TGA analysis a portion of the sample was recovered and analyzed by DSC. The DSC thermograms of the starting material and of the material recovered following vapor sorption analysis were superimposable.
The experimental protocol was set up to dry the sample at 60° C. for a maximum of 1 h or until an equilibrium condition was reached which fluctuated less then 0.02 wt % in 5 min. The experiment was run isothermally at 25° C., and the %RH was increased from 5% to 95% in 10% increments. After each increment the sample held constant until equilibrium was reached. Equilibrium was defined as a per cent weight change of not more than 0.005 wt % in 5.00 minutes. After reaching 95% RH the RH was lowered back to 5% RH. If equilibrium was not reached within 2 hours, the %RH was advanced to the next programmed level.

[2] = Thermal stability on modulated temperature x-ray diffractometer; assay type: physicochemical; conditions: for thermal stability of crystalline form: monohydrochloride
[3] = Accelerated stability study (Form A): temperature, humidity, light; assay type: physicochemical
Experimental: Stability samples were evaluated for appearance, water content, chemical stability using an HPLC method and physical stability using DSC, specific rotation and x-ray powder diffraction methods. Photochemical stability was assessed by comparison with a control sample that was wrapped in aluminum foil and set side by side with the light sample in the light chamber.
DSC Thermograms were collected using a 2920 Modulated DSC from Thermal Analyzer (TA) Instruments. The heating rate was 10° C./min with a nitrogen purge maintained throughout the run.
Chromatography was carried out on a Zorbax SB-CN, 4.6×150 mm, 3.5 μm column. A ternary solvent gradient was used comprised of (A) water, (B) acetonitrile and (C) 200 mM heptane sulfonic acid sodium salt, monohydrate with 1% phosphoric acid in water. To prepare 500 mL of the solution, dissolve 22.0 g of 1-heptane sulfonic acid sodium salt, monohydrate in about 400 mL of water. Add 5 mL of phosphoric acid, 85% and then dilute to a volume of 500 mL with water and mix thoroughly. A flow rate of 1.0 mL/m was used. The column was run isocratically with 90% A and 10% C for 5 m. A linear gradient to 20% A, 70% B and 10% C was run over 20 m. This mixture was run isocratically for an addition 5 m after which the solvent was ramped back to 90% A and […] over 2 m followed by 8 m to reequilibrate the column. The column was maintained at 40° C.

Vacuum drying of Form B = assay type: physicochemical
[4] = Physical stability of Form B on storage; assay type: physicochemical; conditions: ambient temperature, 25° C./60% RH, 30° C./60% RH, 40° C./75% RH, at least 4 weeks
Excerpt: The Form B-polymorph was crystallized from water and formed platelets (FIG. 3B). […] (FIG. 5B) corresponding to approximately one mole of water per mole of Ib.

Bulk and tap density = assay type: physicochemical
Experimental: The bulk density of Ib was determined Vanderkamp™ tap density tester, with an acoustic cabinet, or equivalent (Van-Kel Industries, Inc., 36 Meridian Road, Edison, N.J. 08820) apparatus following. Ib was passed through a 20 mesh. A powder funnel was placed on top of a cylinder and the powder was transferred rapidly in to the cylinder while avoiding agitation or tapping of the cylinder and the lower funnel. The sample weight in the cylinder was determined and the bulk density was calculated.
The tapped density was determined by measuring the volume of drug substance in a 25 mL graduated cylinder after 300 taps of a known amount of drug substance. The apparatus used was a VanderKamp Tapped Density Tester. The tapped density was calculated as the known weight of drug substance divided by the measured volume.

HCV = conditions: unlike ribavirin; cited from earlier work
Th1 cytokine expression = conditions: antiviral Th1 cytokine expression; cited from earlier work
[5] = compared with ribavirin; cited from earlier work
[6] = heating from room temperature to 175° C.
[7] = Light Control (wrapped in aluminum foil), ICH Q1B

With “2-(S)-amino-3-methyl-butyric acid 5S-(3-carbamoyl-[1,2,4]triazol-1-yl)-3R,4S-dihydroxy-tetrahydrofuran-2S-yl methyl ester, monohydrochloride [Form A]” the hygroscopicity ([1]; 5%-95%-5% RH cycle, 25° C.) was “not hygroscopic”, the “DSC thermograms of starting material and material recovered following vapor sorption analysis” value ([1]; after 5%-95%-5% RH cycle) was “superimposable” and the “weight gained during adsorption phase” value ([1]; between 5% RH and 85% RH, isothermal 25° C.) was 0.5 wt %. For the same molecule, the “weight increase during adsorption phase” value ([1]; between 85% and 95% RH, isothermal 25° C.) was less than 2.5 weight percent, the “weight change during desorption phase” value ([1]; same %RH ranges, desorption) was “virtually all of the weight gained in the adsorption phase was lost” and the “thermal stability of crystalline form” value [2, 6] was “did not change its crystalline form”. The “% Purity (ext. std)” value ([3]; 2–8° C., 3 months) was 99.9%, the Appearance ([3]; 2–8° C., 3 months) was “White to off-white” and the “% Purity (ext. std)” value ([3]; 2–8° C., 4 weeks) was 100.4%. For the same molecule, the Appearance ([3]; 2–8° C., 4 weeks) was “White crystalline”, the “% Purity (ext. std)” value ([3]; 25° C. 60% RH, 3 months) was 99.8% and the Appearance ([3]; 25° C. 60% RH, 3 months) was “White to off-white”. For the same molecule, the “% Purity (ext. std)” value ([3]; 25° C. 60% RH, 4 weeks) was 100.2%, the Appearance ([3]; 25° C. 60% RH, 4 weeks) was “White crystalline” and the “% Purity (ext. std)” value ([3]; 30° C. 60% RH, 3 months) was 100.2%. The Appearance ([3]; 30° C. 60% RH, 3 months) was “White to off-white”, the “% Purity (ext. std)” value ([3]; 30° C. 60% RH, 4 weeks) was 100.7% and the Appearance ([3]; 30° C. 60% RH, 4 weeks) was “White crystalline”. The “% Purity (ext. std)” value ([3]; 40° C. 75% RH, 3 months) was 100.1%, the Appearance ([3]; 40° C. 75% RH, 3 months) was “White to off-white” and the “% Purity (ext. std)” value ([3]; 40° C. 75% RH, 4 weeks) was 100.6%. For the same molecule, the Appearance ([3]; 40° C. 75% RH, 4 weeks) was “White crystalline”, the “% Purity (ext. std)” value ([3]; 60° C., 3 months) was 98.7% and the Appearance ([3]; 60° C., 3 months) was “White to off-white”. The “% Purity (ext. std)” value ([3]; 60° C., 4 weeks) was 100.8%, the Appearance ([3]; 60° C., 4 weeks) was “White crystalline” and the “% Purity (ext. std)” value [3, 7] was 100.9%. The Appearance [3, 7] was “White crystalline”, the “% Purity (ext. std)” value ([3]; Light, ICH Q1B) was 100.9% and the Appearance ([3]; Light, ICH Q1B) was “White crystalline”. For the same molecule, the “% Purity (ext. std)” value ([3]; RT, Initial) was 98.1% and the Appearance ([3]; RT, Initial) was “White crystalline”.
With “2-(S)-amino-3-methyl-butyric acid 5S-(3-carbamoyl-[1,2,4]triazol-1-yl)-3R,4S-dihydroxy-tetrahydrofuran-2S-yl methyl ester, monohydrochloride [Form B]” the “crystalline form after vacuum drying” value (Vacuum drying of Form B; at elevated temperature) was “conversion of Form B to Form A”, the “crystalline form after vacuum drying” value (Vacuum drying of Form B; in the absence of heat) was “stable” and the “physical stability on storage” value [4] was “physically stable”. The “crystalline form after heating and cooling” value ([2]; from 32° C. to 140° C.) was “conversion of Form B into Form A”, the “temperature above which Form B was converted into Form A” value [2, 6] was “above 80 °C” and the “thermal stability of crystalline form” value [2, 6] was “unstable”.
With `CC(C)C(N)C(=O)OC[C@@H]1O[C@H](n2cnc(C(N)=O)n2)[C@@H](O)[C@H]1O` (stereo partly drawn) [Ib, 2-(S)-amino-3-methyl-butyric acid 5S-(3-carbamoyl-[1,2,4]triazol-1-yl)-3R,4S-dihydroxy-tetrahydrofuran-2S-yl methyl ester, monohydrochloride] the bulk density (Bulk and tap density) was 0.35 g/mL, the tapped density (Bulk and tap density; after 300 taps) was 0.58 g/mL and the “change in DSC thermograms, specific rotation, water content, x-ray diffraction pattern and purity” value ([3]; over the study period, all storage conditions) was “no discernable change”.
In the case of `NC(=O)c1ncn([C@H]2O[C@@H](CO)[C@H](O)[C@@H]2O)n1` [Levovirin, 1-(3S,4R-dihydroxy-5S-hydroxymethyl-tetrahydro-furan-2S-yl)-1H-[1,2,4]triazole-3-carboxylic acid amide], the direct antiviral activity (HCV) is listed as “does not have direct detectable antiviral activity”, the immune response (Th1 cytokine expression) is listed as “stimulates immune responses by enhancing antiviral Th1 cytokine expression” and the toxicity [5] is listed as “appears to lack toxicity associated with ribavirin”.
